# Values of other authors as cited in patent publication US20070082912A1, “Pyrrole compounds for the treatment of prostaglandine mediated diseases” (priority 2002, published 2007).
# How the values were obtained:
# [1] = tested on: rodent model of post-operative pain; details: Anesthesia and Analgesia 2001, 92, 233-238
# [2] = tested on: rat model of chronic constriction injury; details: Anesthesia and Analgesia 2001, 93, 1012-7
smiles,measurement,setting,value
Cc1cc(Cl)ccc1S(=O)(=O)NC[C@H]1C2CCC(CC2)[C@@H]1/C=C\CCCC(=O)O [ONO-871 1],mechanical hyperalgesia,[1],inhibits mechanical hyperalgesia
same,hyperalgesia and allodynia,[2],reduces hyperalgesia and allodynia
